Laboratory results reported in patent publication US11400073B2, “Prevention and treatment of benign prostatic hyperplasia using a selective inhibitor of the production of reactive oxygen species of mitochondrial origin” (priority 2017, dated 2022).

What was measured:
CD45 = CD45 immunolabeling (IHC) of inflammation sites in Pb-PRL mouse prostate; type: in vivo; conditions: Pb-PRL mice, 60 mg/kg/day, 28 days, vs control; half-prostate; FIG. 7
Procedure: (§1) ATT (anethole trithione) was administered to probasin-prolactin (Pb-PRL) mice. This is a transgenic mouse model in which prolactin is specifically overexpressed by the epithelial cells of the prostate, leading to development of benign hyperplasia having characteristics in common with the human pathology: tissue hypertrophy, hyperplasia of the epithelial and stromal cells, and intra-prostatic inflammation (Kindblom et al., 2003; Bernichtein et al., 2015a; Bernichtein et al., 2015b).
(§2) The control group (excipient) was treated with the oil alone.
(§3) The animals were sacrificed at the end of the 28 days of treatment (cervical dislocation), and the prostates were harvested and analyzed by the standard procedures previously described in the literature (Bernichtein et al. Prostate 2015, Bernichtein et al. PLoS. ONE 2015, Bernichtein et al. Cancer Res 2017).
(§4) The inflammation was measured using two approaches: • CD45 immunolabeling (IHC): making it possible to quantify the number and size of the inflammation sites (image analysis using Calopix software). • RT-qPCR of selected cytokines: IL6 and TNFa.

[1] = tested on: SRD5A1 (5-alpha-reductase); test: RT-qPCR of SRD5A1 in Pb-PRL mouse prostate; type: in vivo; conditions: Pb-PRL mice, 60 mg/kg/day, 28 days, vs control; dorsal, lateral, ventral prostate; FIGS. 4A-4C
Procedure: as §1, §2, §3
(§5) This study was performed by RT-qPCR analysis of the expression of elements associated with androgenic signaling and of conventional targets of the androgen receptor in the prostate (AR, PSP 94, Srd5A1, Srd5A2) (Bernichtein et al. Prostate 2015, Sackmann Sala et al. J Pathol 2017).

IL6 = test: RT-qPCR of IL6 in Pb-PRL mouse prostate; type: in vivo; conditions: Pb-PRL mice, 60 mg/kg/day, 28 days, vs control; dorsal, lateral, ventral prostate; FIGS. 8A-8C
Procedure: as §1, §2, §3, §4

[2] = tested on: epithelial proliferation (Ki-67); test: Epithelial proliferation by IHC Ki-67 in Pb-PRL mouse prostate; type: in vivo; conditions: Pb-PRL mice, 60 mg/kg/day by gavage, 28 days, vs control group; half-prostate; FIG. 2
Procedure: as §1, §2, §3
Cell proliferation was measured by IHC Ki-67, which makes it possible to calculate the epithelium proliferation index (manual counting or Calopix software).

[3] = tested on: mitochondrial oxidative phosphorylation; test: Effect on mitochondrial oxidative phosphorylation; type: biochemical; conditions: preliminarily demonstrated
[4] = tested on: IQ site of the I complex of the mitochondrial respiratory chain; test: Action on mitochondrial ROS production; type: biochemical; conditions: mostly at the IQ site of the I complex of the mitochondrial respiratory chain; unlike conventional antioxidants
[5] = tested on: SRD5A2 (5-alpha-reductase); test: RT-qPCR of SRD5A2 in Pb-PRL mouse prostate; type: in vivo; conditions: Pb-PRL mice, 60 mg/kg/day, 28 days, vs control; dorsal, lateral, ventral prostate; FIGS. 5A-5C
Procedure: as §1, §2, §3, §5

HIF1 alpha = test: RT-qPCR of HIF1 alpha (hypoxia) in Pb-PRL mouse prostate; type: in vivo; conditions: Pb-PRL mice, 60 mg/kg/day, 28 days, vs control; in one or more prostate lobes; FIGS. 13A-13C
Procedure: as §1, §2, §3
Hypoxia was observed by analysis of HIF1 alpha measured by RT-qPCR at the dorsal, lateral and ventral prostate. The results are presented in FIGS. 13A, 13B and […], respectively.

[6] = tested on: oxidation/carbonylation of the proteins; test: Oxidation/carbonylation of the proteins by blot (Oxyblot) in Pb-PRL mouse prostate; type: in vivo; conditions: Pb-PRL mice, 60 mg/kg/day, 28 days, vs control; all lobes; FIGS. 10A-10C
Procedure: as §1, §2, §3
(§6) Oxidative stress will be measured using two approaches: • oxidation/carbonylation of the proteins by blot (Oxyblot™, Merck). • PHD1 and PHD3 dioxygenase expression (RT-qPCR).

[7] = in rats; cited from earlier work
[8] = marketed as SULFARLEM; cited from earlier work
Pb-PRL mice = test: Scar fibrosis in Pb-PRL mouse prostate; type: in vivo; conditions: 60 mg/kg/day, 28 days, vs control
Procedure: ATT (anethole trithione) was administered to probasin-prolactin (Pb-PRL) mice. This is a transgenic mouse model in which prolactin is specifically overexpressed by the epithelial cells of the prostate, leading to development of benign hyperplasia having characteristics in common with the human pathology: tissue hypertrophy, hyperplasia of the epithelial and stromal cells, and intra-prostatic inflammation (Kindblom et al., 2003; Bernichtein et al., 2015a; Bernichtein et al., 2015b). […] The control group (excipient) was treated with the oil alone. […] The animals were sacrificed at the end of the 28 days of treatment (cervical dislocation), and the prostates were harvested and analyzed by the standard procedures previously described in the literature (Bernichtein et al. Prostate 2015, Bernichtein et al. PLoS. ONE 2015, Bernichtein et al. Cancer Res 2017).

TNFalpha = test: RT-qPCR of TNFalpha in Pb-PRL mouse prostate; type: in vivo; conditions: Pb-PRL mice, 60 mg/kg/day, 28 days, vs control; dorsal, lateral, ventral prostate; FIGS. 9A-9C
Procedure: as §1, §2, §3, §4

PHD1 dioxygenase = test: RT-qPCR of PHD1 dioxygenase in Pb-PRL mouse prostate; type: in vivo; conditions: Pb-PRL mice, 60 mg/kg/day, 28 days, vs control; FIGS. 11A-11C
Procedure: as §1, §2, §3, §6

PSP94 = test: RT-qPCR of PSP94 in Pb-PRL mouse prostate; type: in vivo; conditions: Pb-PRL mice, 60 mg/kg/day, 28 days, vs control; dorsal, lateral, ventral prostate; FIGS. 6A-6C
Procedure: as §1, §2, §3, §5

PHD3 dioxygenase = test: RT-qPCR of PHD3 dioxygenase in Pb-PRL mouse prostate; type: in vivo; conditions: Pb-PRL mice, 60 mg/kg/day, 28 days, vs control; FIGS. 12A-12C
Procedure: as §1, §2, §3, §6

cytokines = conditions: experimental T. vaginalis prostatic infection models; inhibition of ROS production (Kim S-S., 2016); cited from earlier work
VEGF = conditions: Ren, 2015; cited from earlier work
prostatic ROSs = conditions: Ren, 2015; cited from earlier work
[9] = tested on: cell proliferation / apoptosis; conditions: Ren, 2015; cited from earlier work
HIF-1α = conditions: Ren, 2015; cited from earlier work

COc1ccc(-c2cc(=S)ss2)cc1 [ATT, 5-(4-methoxyphenyl)-3H-1,2-dithiole-3-thione]
number of positive leukocyte cell sites for the CD45 marker (CD45): statistically significant decrease
expression of 5-alpha-reductase 1 (SRD5A1) messenger RNAs [1]: statistically significant decrease
expression of IL6 (IL6): decrease
epithelial proliferation of the prostate (Ki-67 immunohistochemistry) [2]: statistically significant decrease
effect on mitochondrial oxidative phosphorylation [3]: does not affect
action on mitochondrial ROS production [4]: acts directly and selectively
expression of 5-alpha-reductase 2 (SRD5A2) messenger RNAs [5]: statistically significant decrease
expression of the messenger RNAs of the HIF1 alpha hypoxia marker (HIF1 alpha): statistically significant increase
carbonylation of the proteins (Oxyblot) [6]: statistically significant decrease
half-life [7]: 24 min
side effects associated to long-term use [8]: no side effect has been reported
scar fibrosis (Pb-PRL mice): statistically significant increase
expression of TNFalpha (TNFalpha): decrease
expression of the messenger RNAs of PHD1 dioxygenase (PHD1 dioxygenase): statistically significant decrease
expression of PSP94 messenger RNAs (PSP94): statistically significant decrease
expression of the messenger RNAs of PHD3 dioxygenase (PHD3 dioxygenase): statistically significant decrease

c1ccc2c(c1)[I+]c1ccccc1-2 [DPI, diphenylene iodonium]
overexpression of cytokines (cytokines): prevents overexpression

CC1=NN(c2ccccc2)C(=O)C1 [edaravone]
levels of VEGF (VEGF): decreases
levels of prostatic ROSs (prostatic ROSs): decreases
apoptosis [9]: promotes
cell proliferation [9]: reduces
levels of HIF-1α (HIF-1α): decreases
